Assay results: patent US20140005163A1 (NOVARTIS AG, priority 2010, published 2014)

What was measured:
PI3K beta = biological target: T1, PI3K beta (Homo sapiens, UniProt P42338); assay: PI3K beta kinase assay (Kinase-Glo luminescence); assay type: biochemical
T1 construct: for the full-length p110-b subunit are generated and fused by overlapping PCR; p85(iSH2) fusion partner (see partner chain) (N); His tag (C); made in house; host or cells: baculovirus; Tn5 (Trichoplusia ni) or TiniPro insect cells
T1 sequence (P42338 with tags, fused parts or gaps limits assumed): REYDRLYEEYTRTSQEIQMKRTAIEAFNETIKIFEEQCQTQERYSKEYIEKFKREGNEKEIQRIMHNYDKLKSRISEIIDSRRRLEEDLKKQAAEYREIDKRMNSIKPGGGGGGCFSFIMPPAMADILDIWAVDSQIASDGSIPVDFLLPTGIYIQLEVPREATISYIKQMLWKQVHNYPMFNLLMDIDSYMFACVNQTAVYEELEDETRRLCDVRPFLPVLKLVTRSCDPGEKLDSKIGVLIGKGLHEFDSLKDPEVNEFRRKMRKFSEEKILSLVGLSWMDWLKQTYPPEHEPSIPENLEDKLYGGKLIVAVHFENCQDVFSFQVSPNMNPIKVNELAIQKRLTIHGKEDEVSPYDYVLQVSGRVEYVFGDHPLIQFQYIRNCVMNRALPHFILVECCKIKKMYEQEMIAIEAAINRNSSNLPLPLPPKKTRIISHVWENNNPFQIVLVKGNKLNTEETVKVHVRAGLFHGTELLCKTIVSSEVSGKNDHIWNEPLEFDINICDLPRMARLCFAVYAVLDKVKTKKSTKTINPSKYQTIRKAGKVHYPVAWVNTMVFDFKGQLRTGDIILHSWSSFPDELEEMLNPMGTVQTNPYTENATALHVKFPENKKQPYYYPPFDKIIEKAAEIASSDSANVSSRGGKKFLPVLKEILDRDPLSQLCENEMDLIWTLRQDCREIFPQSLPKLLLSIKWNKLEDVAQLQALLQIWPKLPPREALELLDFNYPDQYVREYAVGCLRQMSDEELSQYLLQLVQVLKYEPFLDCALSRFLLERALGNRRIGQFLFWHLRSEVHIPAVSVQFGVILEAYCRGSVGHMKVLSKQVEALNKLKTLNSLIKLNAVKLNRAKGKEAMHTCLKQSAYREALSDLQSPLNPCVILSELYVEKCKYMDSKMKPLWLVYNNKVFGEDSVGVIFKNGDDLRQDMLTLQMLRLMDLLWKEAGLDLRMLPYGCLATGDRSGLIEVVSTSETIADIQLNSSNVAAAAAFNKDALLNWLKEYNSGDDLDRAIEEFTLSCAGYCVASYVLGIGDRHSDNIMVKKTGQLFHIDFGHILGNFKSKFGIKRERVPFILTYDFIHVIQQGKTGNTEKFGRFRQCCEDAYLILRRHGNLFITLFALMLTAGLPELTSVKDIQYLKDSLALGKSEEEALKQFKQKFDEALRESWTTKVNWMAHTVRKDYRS
Method in brief: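 Enzyme: BV949 p85(iSH2)-Gly linker-p110β FL-His, 25 nM. Substrate: PI 10 μg/mL. ATP: 1 μM, added to start. Buffer: Tris pH 7.5 10 mM, MgCl2 3 mM, NaCl 50 mM, CHAPS 0.05%, DTT 1 mM. RT, 60 min. Readout: Kinase-Glo. IC50 by 4-parameter fit.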

PI3K delta = biological target: T2, PI3K delta (Homo sapiens, UniProt O00329); assay: PI3K delta kinase assay (Kinase-Glo luminescence); assay type: biochemical
T2 construct: for the full-length p110-d subunit are generated and fused by overlapping PCR; p85(iSH2) fusion partner (see partner chain) (N); His tag (C); made in house; host or cells: baculovirus; Tn5 (Trichoplusia ni) or TiniPro insect cells
T2 sequence (O00329 with tags, fused parts or gaps limits assumed): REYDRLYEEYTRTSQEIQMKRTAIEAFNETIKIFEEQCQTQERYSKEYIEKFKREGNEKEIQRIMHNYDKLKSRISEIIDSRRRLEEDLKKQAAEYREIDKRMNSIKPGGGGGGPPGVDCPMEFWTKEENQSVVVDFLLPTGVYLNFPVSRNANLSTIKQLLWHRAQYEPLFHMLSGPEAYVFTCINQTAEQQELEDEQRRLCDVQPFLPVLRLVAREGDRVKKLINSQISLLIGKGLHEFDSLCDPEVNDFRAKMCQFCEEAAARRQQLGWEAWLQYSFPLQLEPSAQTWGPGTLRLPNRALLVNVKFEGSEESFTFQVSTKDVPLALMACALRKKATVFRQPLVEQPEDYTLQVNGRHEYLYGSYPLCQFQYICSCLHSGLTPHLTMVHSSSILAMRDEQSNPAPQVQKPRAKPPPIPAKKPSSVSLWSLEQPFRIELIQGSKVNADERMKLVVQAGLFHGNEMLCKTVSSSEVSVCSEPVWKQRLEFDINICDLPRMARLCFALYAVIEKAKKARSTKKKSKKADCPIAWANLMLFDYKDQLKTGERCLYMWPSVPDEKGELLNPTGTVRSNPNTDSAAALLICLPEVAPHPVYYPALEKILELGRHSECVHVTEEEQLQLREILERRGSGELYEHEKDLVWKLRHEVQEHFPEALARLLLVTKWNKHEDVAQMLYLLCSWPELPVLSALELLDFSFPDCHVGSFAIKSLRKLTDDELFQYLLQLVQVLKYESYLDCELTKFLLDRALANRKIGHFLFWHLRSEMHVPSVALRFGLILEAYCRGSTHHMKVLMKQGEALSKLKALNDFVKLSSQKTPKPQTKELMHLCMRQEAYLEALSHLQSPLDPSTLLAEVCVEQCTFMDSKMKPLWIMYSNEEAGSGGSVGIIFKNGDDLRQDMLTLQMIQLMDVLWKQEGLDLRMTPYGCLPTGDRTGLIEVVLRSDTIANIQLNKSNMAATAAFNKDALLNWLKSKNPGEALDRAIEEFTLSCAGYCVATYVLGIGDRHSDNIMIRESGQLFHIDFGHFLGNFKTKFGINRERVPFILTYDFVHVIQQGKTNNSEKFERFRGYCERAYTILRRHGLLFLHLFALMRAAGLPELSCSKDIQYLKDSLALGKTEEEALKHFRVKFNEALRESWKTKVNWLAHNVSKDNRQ
Method in brief: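 Construct BV-1060, p85 iSH2–linker–full-length p110δ, His-tagged, at 10 nM, with 1 μM ATP and 10 μg/mL phosphatidylinositol in pH 7.5 Tris, 3 mM MgCl2, 50 mM NaCl, 0.05% CHAPS. Run 60 min at room temperature; remaining ATP read by Kinase-Glo luminescence; IC50 from 4-parameter logistic fit of 8 concentrations.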

Row | Structure (SMILES) | IC50 (PI3K beta) [nM] | IC50 (PI3K delta) [nM]
1 | Cc1cc(-n2c(=O)n(C)c3cnc4ccc(-c5ccc(C(F)(F)F)nc5)cc4c32)n(C)n1 [Example 8.2, 1-(2,5-Dimethyl-2H-pyrazol-3-yl)-3-methyl-8-(6-trifluoromethyl-pyridin-3-yl)-1,3-dihydro-imidazo[4,5-c]quinolin-2-one] | 387 | 120
2 | Cc1nn(C)cc1-n1c(=O)n(C)c2cnc3ccc(-c4cncc(OCC5CC5)c4)cc3c21 [Example 61, 8-(5-Cyclopropylmethoxy-pyridin-3-yl)-1-(1,3-dimethyl-1H-pyrazol-4-yl)-3-methyl-1,3-dihydro-imidazo[4,5-c]quinolin-2-one] | 25 | 17
3 | Cc1nn(C)c(C)c1-n1c(=O)n(C)c2cnc3ccc(-c4cnc(N)nc4)cc3c21 [Example 81.2, 8-(2-Amino-pyrimidin-5-yl)-3-methyl-1-(1,3,5-trimethyl-1H-pyrazol-4-yl)-1,3-dihydro-imidazo[4,5-c]quinolin-2-one] | 281 | 30
4 | CCNc1cc(-c2ccc3ncc4c(c3c2)n(-c2c(C)nn(CCO)c2C)c(=O)n4C)cnc1C [Example 210, 8-(5-Ethylamino-6-methyl-pyridin-3-yl)-1-[1-(2-hydroxy-ethyl)-3,5-dimethyl-1H-pyrazol-4-yl]-3-methyl-1,3-dihydro-imidazo[4,5-c]quinolin-2-one] | 49 | 13
5 | Cc1nn(C)cc1-n1c(=O)n(C)c2cnc3ccc(-c4cncc(N)c4)cc3c21 [Example 45.1, 8-(5-Amino-pyridin-3-yl)-1-(1,3-dimethyl-1H-pyrazol-4-yl)-3-methyl-1,3-dihydro-imidazo[4,5-c]quinolin-2-one] | 47 | 19
6 | CCOc1cncc(-c2ccc3ncc4c(c3c2)n(-c2c(C)cnn2C)c(=O)n4C)c1 [Example 56.5, 1-(2,4-Dimethyl-2H-pyrazol-3-yl)-8-(5-ethoxy-pyridin-3-yl)-3-methyl-1,3-dihydro-imidazo[4,5-c]quinolin-2-one] | 193 | 196
7 | CCn1cc(-n2c(=O)n(C)c3cnc4ccc(-c5cnc(NC)c(Cl)c5)cc4c32)c(C)n1 [Example 146.2, 8-(5-Chloro-6-methylamino-pyridin-3-yl)-1-(1-ethyl-3-methyl-1H-pyrazol-4-yl)-3-methyl-1,3-dihydro-imidazo[4,5-c]quinolin-2-one] | 66 | 30
8 | CCN(CC)C(=O)Cn1cc(-n2c(=O)n(C)c3cnc4ccc(-c5ccc(C)nc5)cc4c32)c(C)n1 [Example 139, N,N-Diethyl-2-{3-methyl-4-[3-methyl-8-(6-methyl-pyridin-3-yl)-2-oxo-2,3-dihydro-imidazo[4,5-c]quinolin-1-yl]-pyrazol-1-yl}-acetamide] |  | 69
9 | Cc1nn(C)cc1-n1c(=O)[nH]c2cnc3ccc(-c4cnc(N(C)C)nc4)cc3c21 [Example 207, 8-(2-Dimethylamino-pyrimidin-5-yl)-1-(1,3-dimethyl-1H-pyrazol-4-yl)-1,3-dihydro-imidazo[4,5-c]quinolin-2-one] | 167 | 29
10 | Cc1nn(CC(=O)N2CCC2)cc1-n1c(=O)n(C)c2cnc3ccc(-c4cncc(OC(C)C)c4)cc3c21 [Example 205, 1-[1-(2-Azetidin-1-yl-2-oxo-ethyl)-3-methyl-1H-pyrazol-4-yl]-8-(5-isopropoxy-pyridin-3-yl)-3-methyl-1,3-dihydro-imidazo[4,5-c]quinolin-2-one] | 17 | 12
11 | CCNc1cc(-c2ccc3ncc4c(c3c2)n(-c2c(C)nn(C)c2C)c(=O)n4C)cnc1CO [Example 155.4, 8-(5-Ethylamino-6-hydroxymethyl-pyridin-3-yl)-3-methyl-1-(1,3,5-trimethyl-1H-pyrazol-4-yl)-1,3-dihydro-imidazo[4,5-c]quinolin-2-one] | 55 | 11
12 | Cc1nn(C)cc1-n1c(=O)n(C)c2cnc3ccc(-c4ccc(N5CC[C@@H](O)C5)nc4)cc3c21 [Example 212.1, 1-(1,3-Dimethyl-1H-pyrazol-4-yl)-8-[6-((R)-3-hydroxy-pyrrolidin-1-yl)-pyridin-3-yl]-3-methyl-1,3-dihydro-imidazo[4,5-c]quinolin-2-one] |  | 111
13 | CCOc1ccc(-c2ccc3ncc4c(c3c2)n(-c2c(C)nn(CC(=O)N(C)C)c2C)c(=O)n4C)cn1 [Example 3.12, 2-{4-[8-(6-Ethoxy-pyridin-3-yl)-3-methyl-2-oxo-2,3-dihydro-imidazo[4,5-c]quinolin-1-yl]-3,5-dimethyl-pyrazol-1-yl}-N,N-dimethyl-acetamide] |  | 721
14 | Cc1nn(C)cc1-n1c(=O)n(C)c2cnc3ccc(-c4cnc5c(c4)nc(N(C)C)n5C)cc3c21 [Example 70, 8-(2-Dimethylamino-3-methyl-3H-imidazo[4,5-b]pyridin-6-yl)-1-(1,3-dimethyl-1H-pyrazol-4-yl)-3-methyl-1,3-dihydro-imidazo[4,5-c]quinolin-2-one] |  | 163
15 | COCCN(C)C(=O)Cn1cc(-n2c(=O)n(C)c3cnc4ccc(-c5ccccc5)cc4c32)c(C)n1 [Example 137, N-(2-Methoxy-ethyl)-N-methyl-2-[3-methyl-4-(3-methyl-2-oxo-8-phenyl-2,3-dihydro-imidazo[4,5-c]quinolin-1-yl)-pyrazol-1-yl]-acetamide] |  | 922

Stronger by IC50 (PI3K delta), values ahead:

Row | IC50 (PI3K beta) [nM] | IC50 (PI3K delta) [nM] | Structure (SMILES)
16 | 12 | 8 | Cc1nn(C)cc1-n1c(=O)n(C)c2cnc3ccc(-c4cnc(F)c(N)c4)cc3c21 [Example 149.2, 8-(5-Amino-6-fluoro-pyridin-3-yl)-1-(1,3-dimethyl-1H-pyrazol-4-yl)-3-methyl-1,3-dihydro-imidazo[4,5-c]quinolin-2-one]
17 | 12 | 3 | CCOc1cc(-c2ccc3ncc4c(c3c2)n(-c2cn(C)nc2C)c(=O)n4C)cnc1C [Example 85.1, 1-(1,3-Dimethyl-1H-pyrazol-4-yl)-8-(5-ethoxy-6-methyl-pyridin-3-yl)-3-methyl-1,3-dihydro-imidazo[4,5-c]quinolin-2-one]
18 | 67 | 10 | CCNC(=O)c1cc(-c2ccc3ncc4c(c3c2)n(-c2cn(C)nc2C)c(=O)n4C)cnc1NC [Example 242.1, 5-[1-(1,3-Dimethyl-1H-pyrazol-4-yl)-3-methyl-2-oxo-2,3-dihydro-1H-imidazo[4,5-c]quinolin-8-yl]-N-ethyl-2-methylamino-nicotinamide]
19 | 12 | 10 | CCn1cc(-n2c(=O)n(C)c3cnc4ccc(-c5cncc(C(C)(C)O)c5)cc4c32)c(C)n1 [Example 215.4, 1-(1-Ethyl-3-methyl-1H-pyrazol-4-yl)-8-[5-(1-hydroxy-1-methyl-ethyl)-pyridin-3-yl]-3-methyl-1,3-dihydro-imidazo[4,5-c]quinolin-2-one]
20 | 37 | 5 | COc1ncc(-c2ccc3ncc4c(c3c2)n(-c2cn(C)nc2Cl)c(=O)n4C)cn1 [Example 17.3, 1-(3-Chloro-1-methyl-1H-pyrazol-4-yl)-8-(2-methoxy-pyrimidin-5-yl)-3-methyl-1,3-dihydro-imidazo[4,5-c]quinolin-2-one]
21 | 18 | 8 | CCNc1cc(-c2ccc3ncc4c(c3c2)n(-c2cn(C)nc2C)c(=O)n4C)cnc1CC [Example 161, 1-(1,3-Dimethyl-1H-pyrazol-4-yl)-8-(6-ethyl-5-ethylamino-pyridin-3-yl)-3-methyl-1,3-dihydro-imidazo[4,5-c]quinolin-2-one]
22 | 16 | 9 | CNc1ncc(-c2ccc3ncc4c(c3c2)n(-c2cn(C)nc2C)c(=O)n4C)cc1C(F)(F)F [Example 144.3, 1-(1,3-Dimethyl-1H-pyrazol-4-yl)-3-methyl-8-(6-methylamino-5-trifluoromethyl-pyridin-3-yl)-1,3-dihydro-imidazo[4,5-c]quinolin-2-one]
23 | 37 | 3 | CCOCc1cc(-c2ccc3ncc4c(c3c2)n(-c2cn(C)nc2C)c(=O)n4C)cnc1N [Example 166.1, 8-(6-Amino-5-ethoxymethyl-pyridin-3-yl)-1-(1,3-dimethyl-1H-pyrazol-4-yl)-3-methyl-1,3-dihydro-imidazo[4,5-c]quinolin-2-one]
24 | 10 | 4 | COc1cc(-c2ccc3ncc4c(c3c2)n(-c2cn(C)nc2C)c(=O)n4C)cnc1C [Example 184, 1-(1,3-Dimethyl-1H-pyrazol-4-yl)-8-(5-methoxy-6-methyl-pyridin-3-yl)-3-methyl-1,3-dihydro-imidazo[4,5-c]quinolin-2-one]
25 | 20 | 10 | CCc1ncc(-c2ccc3ncc4c(c3c2)n(-c2cn(C)nc2C)c(=O)n4C)cc1NC(C)C [Example 162, 1-(1,3-Dimethyl-1H-pyrazol-4-yl)-8-(6-ethyl-5-isopropylamino-pyridin-3-yl)-3-methyl-1,3-dihydro-imidazo[4,5-c]quinolin-2-one]
26 | 14 | 3 | CCNc1cc(-c2ccc3ncc4c(c3c2)n(-c2c(C)nn(C)c2C)c(=O)n4C)cnc1Cl [Example 153.1, 8-(6-Chloro-5-ethylamino-pyridin-3-yl)-3-methyl-1-(1,3,5-trimethyl-1H-pyrazol-4-yl)-1,3-dihydro-imidazo[4,5-c]quinolin-2-one]
